target: T1, Full length human CDC7 protein co-expressed with DBF4 (Homo sapiens, UniProt O00311); assay: CDC7 kinase biochemical assay (ADP-Glo, PDKtide substrate); details: 0.1 nM CDC7/DBF4, 1 uM ATP, 10 uM PDKtide, 4 h; read-out: CDC7 ADP-Glo PDKtide IC50
T1 construct: Full length human CDC7 protein co-expressed with DBF4; purchased SignalChem (China)
Description: CDC7 Kinase Biochemical Assay Protocol:
Full length human CDC7 protein co-expressed with DBF4 was purchased from SignalChem (China). CDC7 kinase activity was determined with PDKtide (SignalChem) as a substrate and by measuring ADP production using the ADP-Glo™ Kinase Assay kit (Promega) following the manufacturers instructions. The kinase reaction was performed using the following conditions: Buffer: 40 mM Tris pH 7.5, 20 mM MgCl2, 0.1 mg/ml BSA and 50 uM DTT. Final reaction mix contained 0.1 nM CDC7/DBF4, 1 uM ATP and 10 uM PDKtide. The kinase reaction time was 4 h. The ADP-Glo signal was measured using an EnVision plate reader (PerkinELmer).
Percent inhibition of CDC7 kinase activity was calculated based on the following formula: […]
SSample: the signal of compounds SHigh ctrl: the signal of high control (DMSO) SLow Ctrl: the signal of low control (positive control CDC7 inhibitor)

T1 sequence (O00311 whole entry): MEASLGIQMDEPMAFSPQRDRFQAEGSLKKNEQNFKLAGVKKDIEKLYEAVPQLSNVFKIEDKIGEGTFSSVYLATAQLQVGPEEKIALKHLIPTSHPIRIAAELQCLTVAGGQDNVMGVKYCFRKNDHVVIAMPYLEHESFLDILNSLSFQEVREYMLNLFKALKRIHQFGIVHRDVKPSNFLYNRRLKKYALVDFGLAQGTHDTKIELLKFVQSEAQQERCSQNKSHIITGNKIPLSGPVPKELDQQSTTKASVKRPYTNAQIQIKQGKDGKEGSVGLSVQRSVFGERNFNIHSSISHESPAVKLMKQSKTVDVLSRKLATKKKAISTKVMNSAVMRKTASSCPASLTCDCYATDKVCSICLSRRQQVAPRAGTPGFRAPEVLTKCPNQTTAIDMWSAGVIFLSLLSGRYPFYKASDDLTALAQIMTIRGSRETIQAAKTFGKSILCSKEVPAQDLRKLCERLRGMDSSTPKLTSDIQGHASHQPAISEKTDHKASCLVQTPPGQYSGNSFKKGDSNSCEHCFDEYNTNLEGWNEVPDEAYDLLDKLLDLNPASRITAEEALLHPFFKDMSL
T1 sequence (Q9UBU7 whole entry partner): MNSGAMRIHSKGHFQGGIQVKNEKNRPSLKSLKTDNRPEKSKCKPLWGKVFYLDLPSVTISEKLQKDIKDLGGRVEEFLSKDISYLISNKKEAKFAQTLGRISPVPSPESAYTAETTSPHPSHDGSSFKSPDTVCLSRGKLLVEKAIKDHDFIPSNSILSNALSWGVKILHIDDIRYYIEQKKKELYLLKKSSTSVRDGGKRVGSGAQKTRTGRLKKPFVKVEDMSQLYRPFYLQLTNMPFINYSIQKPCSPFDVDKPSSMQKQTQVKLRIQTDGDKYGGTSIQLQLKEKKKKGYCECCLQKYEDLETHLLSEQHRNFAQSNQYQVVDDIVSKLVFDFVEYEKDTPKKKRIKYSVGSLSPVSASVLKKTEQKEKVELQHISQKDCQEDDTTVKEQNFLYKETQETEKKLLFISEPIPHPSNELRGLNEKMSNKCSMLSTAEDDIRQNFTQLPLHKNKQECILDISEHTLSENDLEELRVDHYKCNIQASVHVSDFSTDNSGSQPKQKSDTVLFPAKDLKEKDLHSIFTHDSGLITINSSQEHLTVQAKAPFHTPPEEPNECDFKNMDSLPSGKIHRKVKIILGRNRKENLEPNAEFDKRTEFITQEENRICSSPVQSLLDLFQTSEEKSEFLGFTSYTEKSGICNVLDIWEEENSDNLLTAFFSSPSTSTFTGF

IC50 [nM]	SMILES
1 to 10	COC(=O)C[C@@H]1CNC(=O)c2sc(-c3cn[nH]c3)c3c2N1CCO3 [Compound 60, methyl (R)-2-(9-oxo-2-(1H-pyrazol-4-yl)-4,5,6,7,8,9-hexahydro-3-oxa-1-thia-5a,8-diazabenzo[cd]azulen-6-yl)acetate]
< 1	Cc1ccn(C[C@@H]2CNC(=O)c3sc(-c4cn[nH]c4)c4c3N2CCO4)n1 [Compound 61, (S)-6-((3-methyl-1H-pyrazol-1-yl)methyl)-2-(1H-pyrazol-4-yl)-4,5,7,8-tetrahydro-3-oxa-1-thia-5a,8-diazabenzo[cd]azulen-9(6H)-one]
> 10	Cc1ccnn1C[C@H]1CNC(=O)c2sc(-c3cn[nH]c3)c3c2N1CCO3 [Compound 62, (R)-6-((5-methyl-1H-pyrazol-1-yl)methyl)-2-(1H-pyrazol-4-yl)-4,5,7,8-tetrahydro-3-oxa-1-thia-5a,8-diazabenzo[cd]azulen-9(6H)-one]
1 to 10	Cc1cnn(C[C@@H]2CNC(=O)c3sc(-c4cn[nH]c4)c4c3N2CCO4)c1 [Compound 63, (S)-6-((4-methyl-1H-pyrazol-1-yl)methyl)-2-(1H-pyrazol-4-yl)-4,5,7,8-tetrahydro-3-oxa-1-thia-5a,8-diazabenzo[cd]azulen-9(6H)-one]
< 1	O=C1NC2(CCOCC2)CN2CCOc3c(-c4cn[nH]c4)sc1c32 [Compound 64, 2-(1H-pyrazol-4-yl)-2′,3′,4,5,5′,6′-hexahydro-6H-3-oxa-1-thia-5a,8-diazaspiro[benzo[cd]azulene-7,4′-pyran]-2,2a1(9a)-dien-9(8H)-one]
< 1	O=C1N[C@@H](C2CCOCC2)CN2CCOc3c(-c4cn[nH]c4)sc1c32 [Compound 65, (S)-2-(1H-pyrazol-4-yl)-7-(tetrahydro-2H-pyran-4-yl)-4,5,7,8-tetrahydro-3-oxa-1-thia-5a,8-diazabenzo[cd]azulen-9(6H)-one]
< 1	O=C1NC[C@H](CO)N2CCCc3c(-c4cn[nH]c4)sc1c32 [Compound 87, (R)-6-(hydroxymethyl)-2-(1H-pyrazol-4-yl)-4,5,7,8-tetrahydro-3H-1-thia-5a,8-diazabenzo[cd]azulen-9(6H)-one]
1 to 10	COC[C@H]1CNC(=O)c2sc(-c3cn[nH]c3)c3c2N1CCC3 [Compound 88, (R)-6-(methoxymethyl)-2-(1H-pyrazol-4-yl)-4,5,7,8-tetrahydro-3H-1-thia-5a,8-diazabenzo[cd]azulen-9(6H)-one]

More lines, now with the values behind:

SMILES	IC50 [nM]
O=C1NC[C@H](COCc2ccccc2)N2CCOc3c(-c4cn[nH]c4)sc1c32 [Compound 35, (R)-6-((benzyloxy)methyl)-2-(1H-pyrazol-4-yl)-4,5,7,8-tetrahydro-3-oxa-1-thia-5a,8-diazabenzo[cd]azulen-9(6H)-one]	1 to 10
O=C1NC[C@H](CN2CCC2)N2CCOc3c(-c4cn[nH]c4)sc1c32 [Compound 36, (R)-6-(azetidin-1-ylmethyl)-2-(1H-pyrazol-4-yl)-4,5,7,8-tetrahydro-3-oxa-1-thia-5a,8-diazabenzo[cd]azulen-9(6H)-one]	1 to 10
CNC[C@H]1CNC(=O)c2sc(-c3cn[nH]c3)c3c2N1CCO3 [Compound 37, (S)-6-((methylamino)methyl)-2-(1H-pyrazol-4-yl)-4,5,7,8-tetrahydro-3-oxa-1-thia-5a,8-diazabenzo[cd]azulen-9(6H)-one]	< 1
O=C1N[C@@H](CN2CCC2)CN2CCOc3c(-c4cn[nH]c4)sc1c32 [Compound 40, (S)-7-(azetidin-1-ylmethyl)-2-(1H-pyrazol-4-yl)-4,5,7,8-tetrahydro-3-oxa-1-thia-5a,8-diazabenzo[cd]azulen-9(6H)-one]	1 to 10
Cc1cnn(C[C@H]2CNC(=O)c3sc(-c4cn[nH]c4)c4c3N2CCO4)c1 [Compound 42, (R)-6-((4-methyl-1H-pyrazol-1-yl)methyl)-2-(1H-pyrazol-4-yl)-4,5,7,8-tetrahydro-3-oxa-1-thia-5a,8-diazabenzo[cd]azulen-9(6H)-one]	> 10
Cc1ccn(C[C@H]2CN3CCOc4c(-c5cn[nH]c5)sc(c43)C(=O)N2)n1 [Compound 43, (R)-7-((3-methyl-1H-pyrazol-1-yl)methyl)-2-(1H-pyrazol-4-yl)-4,5,7,8-tetrahydro-3-oxa-1-thia-5a,8-diazabenzo[cd]azulen-9(6H)-one]	< 1
Cc1ccnn1C[C@H]1CN2CCOc3c(-c4cn[nH]c4)sc(c32)C(=O)N1 [Compound 44, (R)-7-((5-methyl-1H-pyrazol-1-yl)methyl)-2-(1H-pyrazol-4-yl)-4,5,7,8-tetrahydro-3-oxa-1-thia-5a,8-diazabenzo[cd]azulen-9(6H)-one]	< 1
Cc1cnn(C[C@H]2COc3c(-c4cn[nH]c4)sc4c3N2CCNC4=O)c1 [Compound 45, (S)-5-((4-methyl-1H-pyrazol-1-yl)methyl)-2-(1H-pyrazol-4-yl)-4,5,7,8-tetrahydro-3-oxa-1-thia-5a,8-diazabenzo[cd]azulen-9(6H)-one]	1 to 10
O=C1NC[C@@H](CN2CCC2)N2CCOc3c(-c4cn[nH]c4)sc1c32 [Compound 46, (S)-6-(azetidin-1-ylmethyl)-2-(1H-pyrazol-4-yl)-4,5,7,8-tetrahydro-3-oxa-1-thia-5a,8-diazabenzo[cd]azulen-9(6H)-one]	1 to 10
CNC[C@H]1CN2CCOc3c(-c4cn[nH]c4)sc(c32)C(=O)N1 [Compound 47, (S)-7-((methylamino)methyl)-2-(1H-pyrazol-4-yl)-4,5,7,8-tetrahydro-3-oxa-1-thia-5a,8-diazabenzo[cd]azulen-9(6H)-one]	< 1
O=C1N[C@@H](CO)CN2CCOc3c(-c4cn[nH]c4)sc1c32 [Compound 48, (R)-7-(hydroxymethyl)-2-(1H-pyrazol-4-yl)-4,5,7,8-tetrahydro-3-oxa-1-thia-5a,8-diazabenzo[cd]azulen-9(6H)-one]	< 1
Cn1ccc(C2CN3CCOc4c(-c5cn[nH]c5)sc(c43)C(=O)N2)n1 (stereo not shown) [Compound 52]	1 to 10
COC(=O)[C@@H]1CN2C(=O)COc3c(-c4cn[nH]c4)sc(c32)C(=O)N1 [Compound 53, Methyl (S)-5,9-dioxo-2-(1H-pyrazol-4-yl)-4,5,6,7,8,9-hexahydro-3-oxa-1-thia-5a,8-diazabenzo[cd]azulene-7-carboxylate]	1 to 10
COC[C@@H]1CN(C)C(=O)c2sc(-c3cn[nH]c3)c3c2N1CCO3 [Compound 56, (S)-6-(methoxymethyl)-8-methyl-2-(1H-pyrazol-4-yl)-4,5,7,8-tetrahydro-3-oxa-1-thia-5a,8-diazabenzo[cd]azulen-9(6H)-one]	1 to 10
CC(=O)NC[C@@H]1COc2c(-c3cn[nH]c3)sc3c2N1CCNC3=O [Compound 57, N-[[(7R)-12-oxo-3-(1H-pyrazol-4-yl)-5-oxa-2-thia-8,11-diazatricyclo[6.4.1.0^4,13]trideca-1(13),3-dien-7-yl]methyl]acetamide]	< 1
O=C1NCCN2c3c1sc(-c1cn[nH]c1)c3OC[C@H]2CNC(=O)C1CCC1 [Compound 58, (R)—N-((9-oxo-2-(1H-pyrazol-4-yl)-4,5,6,7,8,9-hexahydro-3-oxa-1-thia-5a,8-diazabenzo[cd]azulen-5-yl)methyl)cyclobutanecarboxamide]	< 1
N#CC[C@@H]1CNC(=O)c2sc(-c3cn[nH]c3)c3c2N1CCO3 [Compound 59, (R)-2-(9-oxo-2-(1H-pyrazol-4-yl)-4,5,6,7,8,9-hexahydro-3-oxa-1-thia-5a,8-diazabenzo[cd]azulen-6-yl)acetonitrile]	< 1

Reference: patent publication US20230101747A1 (Schrödinger, Inc., priority 2019, published 2023)
